Like-named read-outs stand apart in the source and are kept apart here. Where a SMILES comes first, the peptide text is derived from it.
Tests used:
NRP-1 [1] = biological target: T1, NRP-1 (Homo sapiens, UniProt O14786); experiment: NRP-1 binding assay: inhibition of (bt)-VEGF-A165 binding to immobilized NRP-1, chemiluminescent detection
Protocol: More precisely, the inventors have shown that the compounds of formula (I) disclosed herein bind to NRP-1 at the nanomolar level whereas the most efficient known inhibitors to date bind to NRP-1 at the micromolar level.
The flat bottom surface of a 96-well plate was coated with 100 μL (200 ng/well) recombinant human NRP-1 and incubated overnight at 4° C. Non-specific binding was blocked by the incubation with 0.5% BSA in PBS. 50 μL of peptide dissolved in PBS in range concentrations and 50 μL (400 ng/mL) of human (bt)-VEGF-A165 in PBS containing 4 μg/mL of heparin were added respectively. After 2 h incubation at room temperature the plate was washed and treated with streptavidin-horseradish peroxidase conjugate in PBS (1:8000). Chemiluminescence was quantified immediately after addition of 100 μL Chemiluminescent substrate. In a positive control only (bt)-VEGF-A165 was present in wells, while, in negative control, wells were not coated by NRP-1. Percentages of inhibition were calculated by the following formula: 100%−[[(S−[…])/(P−NS)]·100%] where S is the signal intensity measured, NS is the signal measured in negative control, and P is the signal measured in positive control.
Selected active branched peptides were tested again using a more sensitive method with chemiluminescent detection. Moreover, some modified compounds were also examined. The IC50 for selected Lys(hArg)-X-X-Arg peptides was between 2-21 μM (Puszko A. K. at al. Neuropilin-1 peptide-like ligands with proline mimetics, tested using the improved chemiluminescence affinity detection method. MedChemComm, 2019, Vol. 10: 332-340).

NRP-1 [2] = biological target: T1, NRP-1; conditions: further comparative branched peptides without cysteine; chemiluminescent detection (Puszko et al. 2019); cited from earlier work
NRP-1 [3] = biological target: T1, NRP-1; conditions: comparative branched peptides without cysteine; colorimetric method; cited from earlier work
[4] = peptides of formula (I), chemiluminescence binding assay, read-out: IC50

T1 sequence (O14786 22-923): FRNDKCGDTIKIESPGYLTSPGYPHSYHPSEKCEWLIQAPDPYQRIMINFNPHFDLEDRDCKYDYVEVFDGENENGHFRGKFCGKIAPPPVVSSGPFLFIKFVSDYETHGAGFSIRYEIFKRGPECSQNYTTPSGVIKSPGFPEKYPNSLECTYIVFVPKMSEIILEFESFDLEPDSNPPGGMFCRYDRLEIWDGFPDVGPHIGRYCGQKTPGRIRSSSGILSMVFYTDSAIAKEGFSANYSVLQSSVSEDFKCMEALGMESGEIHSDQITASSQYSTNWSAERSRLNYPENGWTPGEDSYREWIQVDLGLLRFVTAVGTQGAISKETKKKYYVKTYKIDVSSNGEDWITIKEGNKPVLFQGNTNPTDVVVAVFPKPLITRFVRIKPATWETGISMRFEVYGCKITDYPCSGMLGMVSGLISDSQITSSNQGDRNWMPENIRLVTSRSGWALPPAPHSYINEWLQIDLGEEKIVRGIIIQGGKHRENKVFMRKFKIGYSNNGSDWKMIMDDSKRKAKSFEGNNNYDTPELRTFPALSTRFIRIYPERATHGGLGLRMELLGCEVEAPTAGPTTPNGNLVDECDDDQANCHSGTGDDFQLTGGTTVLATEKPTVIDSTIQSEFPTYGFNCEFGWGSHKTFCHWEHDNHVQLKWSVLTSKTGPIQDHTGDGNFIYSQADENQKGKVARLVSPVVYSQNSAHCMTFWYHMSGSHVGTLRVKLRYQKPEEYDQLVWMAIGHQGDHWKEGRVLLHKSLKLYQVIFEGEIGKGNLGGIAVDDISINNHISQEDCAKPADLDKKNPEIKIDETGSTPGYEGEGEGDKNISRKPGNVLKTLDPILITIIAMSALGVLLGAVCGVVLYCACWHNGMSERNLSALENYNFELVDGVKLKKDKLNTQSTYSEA

Compound	IC50 (NRP-1 [1]; [4]) [µM]	IC50 (NRP-1 [3]) [µM]	also measured
N=C(N)NCCCC[C@H](NC(=O)[C@@H](N)CS)C(=O)NCCCC[C@H](N)C(=O)N[C@@H](CCN)C(=O)N1CC=C[C@H]1C(=O)N[C@@H](CCCNC(=N)N)C(=O)O [H-Lys(Cys-hArg)-Dab-ΔPro-Arg-OH] (HELM PEPTIDE1{K.[Dab].[O=C([C@@H]1C=CCN1[*:1])[*:2]].R}|PEPTIDE2{C.[N=C(N)NCCCC[C@H](N[*:1])C(=O)[*:2]]}$PEPTIDE1,PEPTIDE2,1:R3-2:R2$$$V2.0)	0.06		
N=C(N)NCCCC[C@H](NC(=O)[C@@H](N)CS)C(=O)NCCCC[C@H](N)C(=O)N[C@@H](CCN)C(=O)N1C2CCCCC2C[C@H]1C(=O)N[C@@H](CCCNC(=N)N)C(=O)O (stereo partly drawn) [H-Lys(Cys-hArg)-Dab-Oic-Arg-OH] (HELM PEPTIDE1{K.[Dab].[O=C([C@@H]1CC2CCCCC2N1[*:1])[*:2]].R}|PEPTIDE2{C.[N=C(N)NCCCC[C@H](N[*:1])C(=O)[*:2]]}$PEPTIDE1,PEPTIDE2,1:R3-2:R2$$$V2.0)	0.04		
H-Lys(hArg)-Oic-Oic-Arg-OH			IC50 (NRP-1 [2]): 7.2 µM
C[C@@H](O)[C@H](N)C(=O)N[C@@H](CCCCN)C(=O)N1CCC[C@H]1C(=O)N[C@@H](CCCNC(=N)N)C(=O)O [TKPR] (H-TKPR-OH; N-terminus and C-terminus assumed)			IC50 (NRP-1 [1]; parent tetrapeptide without N-terminal Cys, VEGF-A165/NRP-1 binding, read-out: IC50 [μM] without Cys): > 100 µM
N=C(N)NCCCC[C@H](N)C(=O)NCCCC[C@H](N)C(=O)N[C@@H](CN)C(=O)N1CCC[C@H]1C(=O)N[C@@H](CCCNC(=N)N)C(=O)O [H-Lys(hArg)-Dap-Pro-Arg-OH] (HELM PEPTIDE1{K.[NC[C@H](N[*:1])C(=O)[*:2]].P.R}|PEPTIDE2{[N=C(N)NCCCC[C@H](N)C(=O)[*:2]]}$PEPTIDE1,PEPTIDE2,1:R3-1:R2$$$V2.0)		0.2	
H-Lys(hArg)-Dab-Oic-Arg-OH			IC50 (NRP-1 [2]): 2.3 µM
N=C(N)NCCCC[C@H](N)C(=O)NCCCC[C@H](NC(=O)[C@@H](N)CS)C(=O)N[C@@H](CCN)C(=O)N1CC=C[C@H]1C(=O)N[C@@H](CCCNC(=N)N)C(=O)O [H-Cys-Lys(hArg)-Dab-ΔPro-Arg-OH] (HELM PEPTIDE1{C.K.[Dab].[O=C([C@@H]1C=CCN1[*:1])[*:2]].R}|PEPTIDE2{[N=C(N)NCCCC[C@H](N)C(=O)[*:2]]}$PEPTIDE1,PEPTIDE2,2:R3-1:R2$$$V2.0)	0.07		
N=C(N)NCCCC[C@H](N)C(=O)NCCCC[C@H](N)C(=O)N1CCC[C@H]1C(=O)N[C@@H](CCN)C(=O)N[C@@H](CCCNC(=N)N)C(=O)O [H-Lys(hArg)-Pro-Dab-Arg-OH] (HELM PEPTIDE1{K.P.[Dab].R}|PEPTIDE2{[N=C(N)NCCCC[C@H](N)C(=O)[*:2]]}$PEPTIDE1,PEPTIDE2,1:R3-1:R2$$$V2.0)		0.2	
N=C(N)NCCCC[C@H](N)C(=O)NCCCC[C@H](N)C(=O)N[C@@H](CCN)C(=O)N1CCC[C@H]1C(=O)N[C@@H](CCCNC(=N)N)C(=O)O [H-Lys(hArg)-Dab-Pro-Arg-OH] (HELM PEPTIDE1{K.[Dab].P.R}|PEPTIDE2{[N=C(N)NCCCC[C@H](N)C(=O)[*:2]]}$PEPTIDE1,PEPTIDE2,1:R3-1:R2$$$V2.0)		0.2	
N=C(N)NCCCC[C@H](N)C(=O)NCCCC[C@H](N)C(=O)N1CCC[C@H]1C(=O)N1CCC[C@H]1C(=O)N[C@@H](CCCNC(=N)N)C(=O)O [H-Lys(hArg)-Pro-Pro-Arg-OH] (HELM PEPTIDE1{K.P.P.R}|PEPTIDE2{[N=C(N)NCCCC[C@H](N)C(=O)[*:2]]}$PEPTIDE1,PEPTIDE2,1:R3-1:R2$$$V2.0)		1	
N=C(N)NCCCC[C@H](N)C(=O)NCCCC[C@H](NC(=O)[C@@H](N)CS)C(=O)N[C@@H](CCN)C(=O)N1C2CCCCC2C[C@H]1C(=O)N[C@@H](CCCNC(=N)N)C(=O)O (stereo partly drawn) [H-Cys-Lys(hArg)-Dab-Oic-Arg-OH] (HELM PEPTIDE1{C.K.[Dab].[O=C([C@@H]1CC2CCCCC2N1[*:1])[*:2]].R}|PEPTIDE2{[N=C(N)NCCCC[C@H](N)C(=O)[*:2]]}$PEPTIDE1,PEPTIDE2,2:R3-1:R2$$$V2.0)	0.05		

Reference: US12590122B2, “NRP-1 binding inhibitory peptides and uses thereof” (priority 2019, dated 2026)
